Measurements as given in patent publication US9358276B2, “Methods of diagnosing and treating small intestinal bacterial overgrowth (SIBO) and SIBO-related conditions” (Cedars-Sinai Medical Center, priority 1999, dated 2016).

Key:
Type in all cases: in vivo, human
upper gut transit = assay: Upper gut transit time by lactulose breath hydrogen test after oleate or oleic acid; conditions: five patients with persistent diarrhea
From the text: In a preliminary study, five patients with persistent diarrhea for 3 to 22 months, (one each due to vagal denervation, ileal resection for Crohn's disease, and vagotomy and antrectomy, and two due to idiopathic causes) were studied. […] This test relies on the metabolism of certain carbohydrate materials (e.g. lactulose) by the microbial flora within the caecum. By generating gas which can be detected in the expired air, it is possible to make some estimation about the initial arrival of the administered material within the colon.
Each patient received orally in random order, 0, 1.6 or 3.2 g of sodium oleate in 25 mL Ensure (Ross), followed by 100 mL water. Thirty minutes after each dose of oleate, patients received 10 g lactulose orally, followed by 25 mL water. Breath samples were collected in commercially available breath testing bags (Quintron, Menomonee Falls, Wis.) every 10-15 minutes, and the hydrogen content of the samples was measured using a breath analyzer (Microlyzer Model 12, Quintron Instruments, Menomonee Falls, Wis.), calibrated against gas samples of known hydrogen concentration. With a syringe, a 40-mL sample of the expired breath was withdrawn from the collection bag and analyzed immediately for hydrogen concentration (ppm). The hydrogen concentration value from each sample was plotted against time. Upper gut transit time was defined as the time in minutes from ingestion of lactulose (t0) until a rise of H2 of >10 ppm. Data were further analyzed using 1-way repeated measures analysis of variance (ANOVA)(See Table 4).
The effect of an active lipid on transit time was determined in 8 normal human subjects (1 male and 7 females with a mean age of 35±2.6 years [SE]) and 45 patients (20 males and 25 females with a mean age of 49.1±2.5 [SE], age range from 18 to 90 years) with chronic diarrhea (i.e., continuous diarrhea for more than two months) associated with a wide variety of diagnoses and conditions (e.g., Crohn's disease; irritable bowel syndrome; short bowel syndrome; Indiana pouch; AIDS; ulcerative colitis; vagotomy; antrectomy; ileostomy; partial and complete colectomy; colon cancer; diabetes mellitus type 1; pancreatic insufficiency; radiation enteropathy; esophagectomy/gastric pull-up; total and subtotal gastrectomy; gastrojejunostomy), made by referring gastroenterologists. The method was the same as described above, except oleic acid (Penta Manufacturing, Livingston, N.J.) replaced sodium oleate in 50 mL of Ensure emulsion. All subjects refrained from taking antibiotics for at least two weeks before each testing date and during stool measurement periods. Patients were also instructed to refrain from anti-diarrheal drugs, laxatives, somatostatin analogues or anticholinergics for at least 48 hours before each test. In both the normal and patient groups, there was a significant slowing of upper gut transit time in response to oleic acid, as summarized in Table 5 below (p<0.001).

SIBO [1] = assay: Case: ADHD with SIBO, neomycin; conditions: one patient
From the text: A person was brought in by their parent with a suspected diagnosis of attention deficit/hyperactivity disorder (AD type), made by a pediatrician. Concurrently, they also had significant bloating, gas and some alteration in bowel habits. They had initially been referred for diagnosis by their teachers and school counselors, because they had been having difficulty performing in school for the previous two to three years, after having previously been a very good student. Prior to the detection of SIBO, the subject had been treated with multiple pharmacologic agents for depression, including amitryptiline, with no noticeable improvement in their symptoms.
Additionally, they started to get AA≅ averages in school again after being in the AC≅ range.

SIBO [2] = assay: Case: impaired memory/mentation with SIBO, neomycin; conditions: one patient
From the text: The patient was a person with a history of chronic intestinal complaints over several years. They experienced altered bowel habits with alternating diarrhea and constipation with bloating, gas, distension and abdominal pain. Also, they had been diagnosed by several psychiatrists as having psychiatric problems due to decreased mentation from mild senility, and they contemplated psychiatric hospitalization.
SIBO was detected in this patient by LBHT.

Row | Compound | Transit time (mean ± SE) (upper gut transit; 1.6 g sodium oleate in 25 mL Ensure) | Transit time (mean ± SE) (upper gut transit; 3.2 g sodium oleate in 25 mL Ensure) | concentration (SIBO [1]) | time to relapse of attention problem and bacterial overgrowth (SIBO [1]) | response to repeat treatment (SIBO [1]; repeat 500 mg twice daily for 10 days) | bowel symptoms (SIBO [1]; 500 mg twice daily for 10 days) | quality of life (SIBO [2]) | eradication of SIBO condition (SIBO [2]; 500 mg twice a day for ten days)
1 | CCCCCCCC/C=C\CCCCCCCC(=O)[O-].[Na+] [oleate, sodium oleate] | 116 ± 11.1 min | 140 ± 11.5 min | – | – | – | – | – | –
2 | neomycin | – | – | able to concentrate better | Approximately two | improved concentration and resolution of bowel symptoms | resolution of their bowel symptoms | dramatic improvement | completely eradicated
